# Measurements reported in US11649458B2, “Inhibiting angiotensinogen to attenuate aortic pathology in Marfan syndrome” (UNIVERSITY OF KENTUCKY RESEARCH FOUNDATION, priority 2020, dated 2023).
# Columns and labels:
# [1] = test system: individuals with Marfan syndrome; details: cited from earlier work
# FBN1 mgR/mgR mice = test: Survival and ascending aortic diameter in FBN1 mgR/mgR mice with established aortic dilation infused with enalapril or losartan by osmotic mini pump; format: in vivo; details: for survival after 12 weeks versus PBS: mini pump from 6 weeks of age
# Protocol: Male and female fibrillin-1 hypomorphic (FBN1 mgR/mgR) mice (n=10-12/group) were stratified into treatment groups by aortic diameter at 6 weeks of age to ensure an equivalent average aortic diameter in each group at the start of the study. Osmotic mini pumps filled with PBS (vehicle), enalapril (2 mg/kg/d), or losartan (20 mg/kg/d) were implanted subcutaneously into mice after stratification. Mini pumps infusing drug or vehicle were replaced every 4 weeks for a total duration of 12 weeks. Wild type littermates (n=10) were infused with PBS as a negative control to the Marfan mouse model. Ascending aortic diameters from male and female FBN1 mgR/mgR mice and their wild type littermates were assessed by ultrasound every 4 weeks from 6 to 18 weeks of age. Aortic diameters were measured luminal edge to luminal edge during diastole.
# [2] = test system: patients with Marfan syndrome; details: male less than 16 years old, female less than 15; losartan p=0.002, atenolol p<0.001; cited from earlier work
# Fbn1^mgR/mgR mice = test: Survival of Fbn1^mgR/mgR mice given losartan in drinking water starting at P24 or P50; format: in vivo; details: for survival compared to Fbn1^mgR/mgR mice receiving no drug, survival analysis starting at P50: p=0.017
# Excerpt: Male (n=40) and female (n=28) Fbn1^mgR/mgR mice were randomized to receive losartan in drinking water (0.6 g/L) starting at either postnatal day 24 (P24) or 50 (P50). Data derived from these mice was compared to littermate Fbn1^mgR/mgR (20 males, 14 females) and wild type (15 males, 15 females) mice that were given vehicle only. All mice were terminated at 20 weeks of age. Mice that died during the study were necropsied to determine cause of death.
# [3] = test system: male FBN1^mgR/mgR (mgR) mice; test: Losartan withdrawal in male FBN1^mgR/mgR mice, death by aortic rupture; format: in vivo
# Excerpt: Withdrawal of losartan during late adolescence (52 days of age) was followed by 6/10 mice dying by aortic rupture within 4 weeks (shaded area). (*=p<0.05. Censored data include humane endpoints and non-rupture events.)
# [4] = test system: patients with Marfan syndrome; details: median follow-up 8 years; control group 5; p=0.14; cited from earlier work
# mouse models of TAA = details: cited from earlier work
# [5] = female mgR mice, PBS=1.92+/-0.13, p=0.86, no significant difference
# [6] = male mgR mice, PBS=2.69+/-0.19 mm, p=0.24, no significant difference
smiles,measurement,setting,value
CCCCC1=NC2(CCCC2)C(=O)N1Cc1ccc(-c2ccccc2-c2nnn[nH]2)cc1 [irbesartan],aortic root expansion,[1],significantly attenuated
CCOC(=O)[C@H](CCc1ccccc1)N[C@@H](C)C(=O)N1CCC[C@H]1C(=O)O [enalapril],survival after 12 weeks versus PBS,"FBN1 mgR/mgR mice; female mgR mice, p=0.094",no significant difference
same,maximum ascending aortic diameter after treatment for 12 weeks,FBN1 mgR/mgR mice; [5],1.89+/−0.31
same,survival after 12 weeks versus PBS,"FBN1 mgR/mgR mice; male mgR mice, p=0.224",no significant difference
same,maximum ascending aortic diameter after treatment for 12 weeks,FBN1 mgR/mgR mice; [6],2.04+/−0.27 mm
CC(C)NCC(O)COc1ccc(CC(N)=O)cc1 (stereo not drawn) [atenolol],change in aortic-root z scores over time with younger age of initiation,[2],greater decrease
CCCCc1nc(Cl)c(CO)n1Cc1ccc(-c2ccccc2-c2nn[nH]n2)cc1 [losartan],survival benefit in female mice,"Fbn1^mgR/mgR mice; female Fbn1^mgR/mgR mice, survival not different from wild type females",not possible to detect a survival benefit
same,survival compared to Fbn1^mgR/mgR males receiving no drug,"Fbn1^mgR/mgR mice; males, losartan 0.6 g/L drinking water from P24, p<0.001, log-rank",increased
same,survival compared to wild type male mice,"Fbn1^mgR/mgR mice; males, losartan from P24, p=0.138",not different
same,survival compared to wild type mice,"Fbn1^mgR/mgR mice; males, losartan from P50, p=0.002",decreased
same,"survival compared to Fbn1^mgR/mgR mice receiving no drug, survival analysis starting at P50","Fbn1^mgR/mgR mice; males, losartan from P50",increased survival
same,"survival compared to Fbn1^mgR/mgR mice receiving no drug, survival analysis starting at P50","Fbn1^mgR/mgR mice; males, losartan from P50, listed as Losartan",improves survival
same,survival compared to Fbn1^mgR/mgR males receiving no drug,"Fbn1^mgR/mgR mice; males, losartan from P50, p=0.194",not different
same,efficacy when administered after significant thoracic aortic dilation has already occurred,FBN1 mgR/mgR mice; FBN1^mgR/mgR mice,not effective
same,survival after 12 weeks versus PBS,"FBN1 mgR/mgR mice; female mgR mice, p=0.094",no significant difference
same,maximum ascending aortic diameter after treatment for 12 weeks,FBN1 mgR/mgR mice; [5],1.98+/−0.17
same,survival after 12 weeks versus PBS,"FBN1 mgR/mgR mice; male mgR mice, p=0.224",no significant difference
same,maximum ascending aortic diameter after treatment for 12 weeks,FBN1 mgR/mgR mice; [6],2.42+/−0.28 mm
same,mortality due to aortic rupture compared to mgR controls,"[3]; male mgR mice, losartan in drinking water from 24 days of age, p<0.05",protected from mortality
same,mice dying by aortic rupture within 4 weeks of losartan withdrawal,[3]; withdrawal at 52 days of age,6/10
same,change in aortic-root z scores over time with younger age of initiation,[2],greater decrease
same,number of deaths,[4],0
same,aortic root expansion in Fbn1^C1041G/+ mice,mouse models of TAA; literature ref 9,decrease aortic root expansion
same,aortic expansion in other mouse models of TAA,mouse models of TAA; literature refs 6-11,reduces aortic expansion
